# Source: patent US20110124690A1, “COMPOSITIONS AND METHODS FOR TREATING CANCER OR A NEUROTROPHIC DISORDER” (priority 2007, published 2011)
# Like-named read-outs stand apart in the source and are kept apart here.
# What was measured:
# [1] = system: CCRF-CEM/VBL (vinblastine-resistant) cells; test: XTT microculture cytotoxicity assay, vinblastine-resistant CCRF-CEM/VBL cells; type: cell-based, human; conditions: for IC50: Homo sapiens, CCRF-CEM
# Method: (§2) CCRF-CEM human T-cell acute lymphoblastic leukemia cells and the corresponding vinblastine-resistant cells (CCRF-CEM/VBL100) were cultured at an initial density of 5×10^4 cells per milliliter. The cultured cells were then maintained in a 5% CO2-humidified atmosphere at 37° C. in RPMI medium 1640 (GIBCO/BRL) containing penicillin (100 units/mL), streptomycin (100 μg/mL, GIBCO/BRL), and 10% heat-inactivated fetal bovine serum. The cytotoxicity of each Panaxytriol Compound was measured using the 2,3-bis(2-methoxy-4-nitro-5-sulfophenyl)-5-[(phenylamino)carbonyl]-2H-tetrazolium hydroxide (XTT) microculture method as described in Scudiero et al., Cancer Res., 48:4827 (1988).
# CCRF-CEM/Taxol cells = test: XTT microculture cytotoxicity assay, Taxol-resistant CCRF-CEM/Taxol cells; type: cell-based, human; conditions: Table 3A
# Method: as §2
# [2] = system: CCRF-CEM human T-cell acute lymphoblastic leukemia cells; test: XTT microculture cytotoxicity assay, CCRF-CEM cells; type: cell-based
# Method: as §2
# [3] = system: human mammary carcinoma xenograft MX-1; test: Therapeutic effect in nude mice bearing MX-1 xenograft; type: in vivo; conditions: slow i.v. infusion; for Tumor growth at elevated dosage levels: elevated dosages
# Method: (§1) Nude mice having human mammary carcinoma xenograft MX-1 were treated with panaxytriol or Compound (A) at various dosages through the slow i.v. infusion protocol by Chou et al. (Chou, T. C., et al, Proc. Natl. Acad. Sci. U.S.A. 95: 15798 (1998)).
# [4] = Body weight of treated nude mice bearing MX-1 xenograft; type: in vivo; conditions: highest dosage levels (100 mg/kg)
# Method: as §1
# [5] = 72 h, Table 3, XTT assay, 72-hour inhibition, vinblastine-resistant cells
# [6] = 72 h, Table 3, XTT assay, 72-hour inhibition, read-out: IC50 (μM) CCRF-CEM
smiles,measurement,setting,value
C=C[C@H](O)C#CC#CC[C@H]1OC(C)(C)O[C@@H]1CCCCCCC [Compound (D)],"Fold resistance, CCRF-CEM/VBL vs parent CCRF-CEM (fold increase in IC50)",[1]; Table 3A,[1.98-fold
same,"Fold resistance, CCRF-CEM/Taxol vs parent CCRF-CEM (fold increase in IC50)",CCRF-CEM/Taxol cells,[2.17-fold
C=C[C@H](C#CC#CC[C@H]1OC(C)(C)O[C@@H]1CCCCCCC)OC(=O)/C=C/c1ccccc1 [Compound (E)],IC50,"[2]; Table 3B, read-out: IC50 (in μM) for human leukemic lymphoblastic leukemia cells CCRF-CEM",6.51 µM
C=C[C@@H](O)C#CC#CC[C@H]1OC(C)(C)O[C@@H]1CCCCCCC [Compound A],IC50,[1]; [5],2.41 ± 0.05 µM
same,IC50,"[1]; Table 3A, compound stored in DMSO at below approximately −20° C. for 4 years and 4 months",6.82 µM
same,"Fold resistance, CCRF-CEM/VBL vs parent CCRF-CEM (fold increase in IC50)",[1]; Table 3A,[1.4-fold
same,Tumor growth at elevated dosage levels,[3],enhanced tumor-growth suppression
same,Reduction in tumor mass,[3]; including elevated dosages,did not lead to a reduction in the tumor mass
same,Tumor growth,"[3]; levels as low as 10 mg/kg, FIG. 2",inhibiting tumor growth
same,IC50,"CCRF-CEM/Taxol cells; Homo sapiens, CCRF-CEM, compound stored in DMSO at below approximately −20° C. for 4 years and 4 months",17.2 µM
same,IC50,[2]; [6],1.98 ± 0.2 µM
same,IC50,"[2]; Table 3A, compound stored in DMSO at below approximately −20° C. for 4 years and 4 months, read-out: IC50 (μM) CCRF-CEM",6.15 µM
C=CC(=O)C#CC#CC[C@@H](O)[C@H](O)CCCCCCC [Compound B],"Fold resistance (IC50 CCRF-CEM/VBL vs CCRF-CEM), in parentheses",[1]; Table 3,1.40 x
C=CC(=O)C#CC#CC[C@H]1OC(C)(C)O[C@@H]1CCCCCCC [Compound C],IC50,[1]; [5],3.84 ± 0.08 µM
same,IC50,[2]; [6],3.23 ± 0.78 µM
"CC[C@]1(O)C[C@@H]2CN(CCc3c([nH]c4ccccc34)[C@@](C(=O)OC)(c3cc4c(cc3OC)N(C)[C@H]3[C@@](O)(C(=O)OC)[C@H](OC(C)=O)[C@]5(CC)C=CCN6CC[C@]43[C@@H]65)C2)C1 [Vinblastine, reference compound]",IC50,[1]; [5],0.8 µM
same,IC50,[2]; [6],0.002 µM
C=C[C@@H](O)C#CC#CC[C@@H](O)[C@H](O)CCCCCCC [panaxytriol],"Fold resistance (IC50 CCRF-CEM/VBL vs CCRF-CEM), in parentheses",[1]; Table 3,1.20 x
same,Reduction in tumor mass,"[3]; 30 mg/kg, FIG. 1",no significant reduction in tumor mass
same,Tumor growth,"[3]; 30 mg/kg, FIG. 1",some suppression of tumor growth
same,Tumor growth at elevated dosage levels,[3],improved inhibitory effects
same,Body weight,[4],no body weight decrease
